US20100041089A1, “IMPROVED METHOD FOR DETECTING CHEMICAL […]” (priority 2006, published 2010)

Tested on: yeast genes (expressed mRNA)
Experiment: DNA chip measurement of expressed mRNA of yeast genes after culture with a toxic chemical substance
Format: cell-based, Saccharomyces cerevisiae S288C
Experimental: Yeast (Saccharomyces cerevisiae S288C (a SUC2mal mel gap2 CUP1)) were cultured at 25° C. on YPD medium (yeast extract 1%, polypeptone 2%, glucose 2%). One of toxic chemical substances was added to the cell at logarithmic growth phase, and the cell was further cultured for two hours. Cell was cultured without any chemical substance in the same condition, and was used as a control. Concentrations of the chemical substances were defined to inhibit the growth of the yeast but not lead to death.
After the completion of cultivation, the culture was centrifuged to collect the cells. To the cells, sodium acetate buffer (50 mM sodium acetate, 10 mM EDTA, 1% SDS) was added, and the mixture was shaken at 65° C. for five minutes, followed by returning to room temperature, and obtaining the supernatant, which procedure was repeated two times. To the supernatant, ½ amount of a solution of phenol/chloroform (1:1) was added, and the mixture was centrifuged to give a supernatant, an equal amount of chloroform was added, and the mixture was centrifuged to give a supernatant. To the supernatant, an equal amount of isopropanol containing 0.3 M sodium acetate was added, and the mixture was allowed to stand at room temperature for 30 minutes, after which the mixture was centrifuged to give sediment of the whole RNAs. Seventy % ethanol was added to the sediment, and the mixture was again centrifuged to give sediment, which was then dried and dissolved in water. mRNA was isolated from the whole RNAs as followings. In view of the fact that a poly A chain is attached to the 3′ terminus of mRNA, a polynucleotide having a poly T structure which was immobilized on the surface of latex beads was used to trap the mRNA, and then the mRNA was washed and eluted with spine column (Oligotex-dT30<Super>mRNA Purification Kit, Takara). Reverse transcription of the mRNA was conducted with a reverse transcriptase (Super Script II Reverse Transcriptase; catalogue No. 18064-014, GibcoBRL) using fluorescence-labeled nucleotides to give cDNAs that were introduced with Cy3-dUTP or Cy5-dUTP during the reverse transcription.
The labeled cDNAs were dissolved in TE buffer (10 mM Tris-HCl/1 mM EDTA, pH 8.0), and the solution was dropped on the DNA chip containing the whole genes of yeast (DNA Chip Research Inc. Japan) so that the cDNAs were hybridized on the DNA chip at 65° C. for over 12 hours. The fluoresces intensity of the DNA chip was read with a scanner, and the ratio relative to the fluorescence intensity resulting from the absence of chemical substance was estimated as the following, which is shown in Tables 1 to 9.
In the Tables, “Intensity” indicated in the rightmost column is a value of the level of expressed mRNA of each gene in control cells as divided by the average level of the expressions of the whole genes. A gene of which mRNA level is lower in control, and is higher in cases of addition of chemical substance, is especially useful in the detection of toxic substances.
Here, when a ratio of an amount of mRNA expressed in the presence of the chemical substance to an amount of mRNA expressed in the absence of the chemical substance is two or more, then it is considered significant.

SMILES: CCCCC[C@H](O)CC(=O)CCc1ccc(O)c(OC)c1 [(13), Gingerol]
- The level of expressed mRNA in the presence of chemical substance/The level of expressed mRNA in the absence of chemical substance (yeast gene YKL065C, cultured two hours with substance): 3.0
- level of expressed mRNA in the presence of chemical substance / level in the absence of chemical substance (yeast gene YKL097C, cultured two hours with the chemical substance): 0.9
- level of expressed mRNA in the presence of chemical substance / level in the absence of chemical substance (yeast gene YKL100C, cultured two hours with the chemical substance): 1.3
- The level of expressed mRNA in the presence of chemical substance/The level of expressed mRNA in the absence of chemical substance (yeast gene YKL153W, cultured two hours with substance): 2.4
- The level of expressed mRNA in the presence of chemical substance/The level of expressed mRNA in the absence of chemical substance (yeast gene YKL194C, mitochondria-located protein gene, cultured two hours with substance): 1.1
- The level of expressed mRNA in the presence of chemical substance/The level of expressed mRNA in the absence of chemical substance (yeast gene YKL218C): 5.1
- The level of expressed mRNA in the presence of chemical substance/The level of expressed mRNA in the absence of chemical substance (yeast gene YKR018C, cultured two hours with substance): 3.0
- level of expressed mRNA in the presence of chemical substance / level in the absence of chemical substance (yeast gene YKR040C, cultured two hours with the chemical substance): 0.6
- The level of expressed mRNA in the presence of chemical substance/The level of expressed mRNA in the absence of chemical substance (yeast gene YKR046C, cultured two hours with substance): 2.8
- The level of expressed mRNA in the presence of chemical substance/The level of expressed mRNA in the absence of chemical substance (yeast gene YKR075C, cultured two hours with substance): 3.8
- The level of expressed mRNA in the presence of chemical substance/The level of expressed mRNA in the absence of chemical substance (yeast gene YLL041C, mitochondria-located protein gene, cultured two hours with substance): 1.0
- The level of expressed mRNA in the presence of chemical substance/The level of expressed mRNA in the absence of chemical substance (yeast gene YLR041W, cultured two hours with the chemical substance): 0.3
- The level of expressed mRNA in the presence of chemical substance/The level of expressed mRNA in the absence of chemical substance (yeast gene YLR217W, cultured two hours with substance): 3.8
- level of expressed mRNA in the presence of chemical substance / level in the absence of chemical substance (yeast gene YLR226W, cultured two hours with the chemical substance): 0.7
- level of expressed mRNA in the presence of chemical substance / level in the absence of chemical substance (yeast gene YLR338W, cultured two hours with the chemical substance): 1.2
- The level of expressed mRNA in the presence of chemical substance/The level of expressed mRNA in the absence of chemical substance (yeast gene YLR340W): 0.1
- The level of expressed mRNA in the presence of chemical substance/The level of expressed mRNA in the absence of chemical substance (yeast gene YLR350W, cultured two hours with substance): 4.5
- The level of expressed mRNA in the presence of chemical substance/The level of expressed mRNA in the absence of chemical substance (yeast gene YLR387C, cultured two hours with substance): 3.6
- The level of expressed mRNA in the presence of chemical substance/The level of expressed mRNA in the absence of chemical substance (yeast gene YLR388W): 0.1
- level of expressed mRNA in the presence of chemical substance / level in the absence of chemical substance (yeast gene YLR392C, cultured two hours with the chemical substance): 1.4
- level of expressed mRNA in the presence of chemical substance / level in the absence of chemical substance (yeast gene YLR415C, cultured two hours with the chemical substance): 1.0
- level of expressed mRNA in the presence of chemical substance / level in the absence of chemical substance (yeast gene YLR427W, cultured two hours with the chemical substance): 2.5
- level of expressed mRNA in the presence of chemical substance / level in the absence of chemical substance (yeast gene YML013W, cultured two hours with the chemical substance): 1.2
- level of expressed mRNA in the presence of chemical substance / level in the absence of chemical substance (yeast gene YML029W, cultured two hours with the chemical substance): 2.0
- level of expressed mRNA in the presence of chemical substance / level in the absence of chemical substance (yeast gene YML041C, cultured two hours with the chemical substance): 1.2
- The level of expressed mRNA in the presence of chemical substance/The level of expressed mRNA in the absence of chemical substance (yeast gene YML054C, cultured for two hours with substance): 2.8
- level of expressed mRNA in the presence of chemical substance / level in the absence of chemical substance (yeast gene YML079W, cultured two hours with the chemical substance): 1.6
- The level of expressed mRNA in the presence of chemical substance/The level of expressed mRNA in the absence of chemical substance (yeast gene YML100W, cultured for two hours with substance): 3.8
- level of expressed mRNA in the presence of chemical substance / level in the absence of chemical substance (yeast gene YMR068W, cultured two hours with the chemical substance): 1.4
- level of expressed mRNA in the presence of chemical substance / level in the absence of chemical substance (yeast gene YMR071C, cultured two hours with the chemical substance): 1.3
- The level of expressed mRNA in the presence of chemical substance/The level of expressed mRNA in the absence of chemical substance (yeast gene YMR095C, cultured two hours with substance): 3.4
- level of expressed mRNA in the presence of chemical substance / level in the absence of chemical substance (yeast gene YMR160W, cultured two hours with the chemical substance): 1.6
- The level of expressed mRNA in the presence of chemical substance/The level of expressed mRNA in the absence of chemical substance (yeast gene YMR191W, cultured two hours with substance): 3.4
- The level of expressed mRNA in the presence of chemical substance/The level of expressed mRNA in the absence of chemical substance (yeast gene YMR203W, mitochondria-located protein gene, cultured two hours with substance): 1.1
- The level of expressed mRNA in the presence of chemical substance/The level of expressed mRNA in the absence of chemical substance (yeast gene YMR210W, cultured two hours with the chemical substance, DNA chip fluorescence ratio): 1.0
- level of expressed mRNA in the presence of chemical substance / level in the absence of chemical substance (yeast gene YNL026W, cultured two hours with the chemical substance): 1.7
- level of expressed mRNA in the presence of chemical substance / level in the absence of chemical substance (yeast gene YNL058C, cultured two hours with the chemical substance): 0.6
- level of expressed mRNA in the presence of chemical substance / level in the absence of chemical substance (yeast gene YNL063W, cultured two hours with the chemical substance): 1.5
- The level of expressed mRNA in the presence of chemical substance/The level of expressed mRNA in the absence of chemical substance (yeast gene YNL069C): 0.1
- The level of expressed mRNA in the presence of chemical substance/The level of expressed mRNA in the absence of chemical substance (yeast gene YNL115C, cultured two hours with substance): 2.5
- The level of expressed mRNA in the presence of chemical substance/The level of expressed mRNA in the absence of chemical substance (yeast gene YNL155W, cultured two hours with substance): 4.4
- level of expressed mRNA in the presence of chemical substance / level in the absence of chemical substance (yeast gene YNL176C, cultured two hours with the chemical substance): 0.6
